Data reported in patent US11779546B2, “Disassembly of cholesterol crystals” (IP SCIENCE LIMITED, priority 2018, dated 2023).
“Also recorded” adds a separate entry of the source.

What was measured:
[1] = Disassembly of crystallised cholesterol (Sigma) in ethanol solutions of test substance; type: physicochemical; details: 100 mg crystallised cholesterol; for ratio of carotenoid to cholesterol at which complete disaggregation of the crystals was observed: 20 ml ethanol, 20-22° C., gentle stirring for a couple of minutes; for effect on size or number of the cholesterol crystals: 20 ml ethanol solutions with different concentrations, room temperature
Protocol: (§1) To 100 mg of crystallised cholesterol (Sigma) 20 ml of ethanol solutions with different concentrations of lycopene were added. As a control, 20 ml of the same ethanol was used but without any lycopene. After gentle stirring for a couple of minutes, under the room temperature of about 20-22° C., recording of the results was made.
as §1, with “lutein” for “lycopene”, “lutein.” for “lycopene.”, “at a” for “under the”
as §1, with “a number of biologically active hydrophobic substances and oils” for “lycopene”, “additives.” for “lycopene.”, “at a” for “under the”, “[…],” for “20-22° C.,”

[2] = Disassembly of cholesterol crystals in the arterial wall (pieces of atherosclerotic abdominal aorta incubated 13 days); design: species or system human; details: 1 μg/ml lycopene in ethanol diluted by PBS 10 fold, room temperature
Excerpt: It was important to confirm whether carotenoids, and lycopene in particular, can affect folding of cholesterol crystals, which are not just synthesized by a manufacturer, but produced naturally, and particularly those, which are developed during pathological process in human. For this purpose, we used pieces of atherosclerotic abdominal aorta, which were obtained during a combined vascular graft and by-pass surgery.
(§2) This was in terms of their stage of development, with prominently featured cholesterol crystals of similar size, embedded into the atheromatous tissues of the aorta wall. As a control material we collected pieces of the atherosclerotic abdominal aorta containing calcium phosphate crystals.
(§3) Firstly, an ethanol solution 1 μg/ml of lycopene was prepared. It was then diluted by PBS 10 fold. As a control, a solution was made with the same ratio ethanol to PBS but without lycopene. Then pieces of aorta were incubated, in light protected containers at the room temperature of about […] for 13 days.

[3] = Control: atherosclerotic abdominal aorta pieces containing calcium phosphate crystals incubated with lycopene; design: species or system human; details: lycopene-ethanol-PBS, 13 days, room temperature
Protocol: as §2, §3

[4] = Prevention of or interference into the formation of cholesterol crystals (evaporation of ethanol cholesterol solution); type: physicochemical; details: for effect on rate / formation of cholesterol crystallisation: less than one molecule of lycopene per million molecules of cholesterol
Protocol: A solution of 198 ml of 1 g of cholesterol (Sigma) in 99% ethanol was divided in two equal parts. In one part 1 ml of ethanol containing […] of the dissolved lycopene was added. This provided ratio of lycopene to cholesterol as 1:10^6. Into the other part, the control, 1 ml of the ethanol itself was added. Then both samples were left in the dark room for evaporation under 20-22° C. Recording of the status of the both samples were made at least on a daily or even shorter intervals.

[5] = Changes of physical properties of cholesterol crystals formed in presence of lycopene; type: physicochemical
Excerpt: In a range of experiments where ratio of cholesterol to lycopene varied, from 1,000 to at least 10,000,000 molecules of the former to 1 molecule of the latter, noticeable changes in the physical properties of crystals were observed.
In all control experiments, cholesterol crystallised into a plate-like crystals, see FIG. 2B and FIG. 2D. Sometimes they could create a thick flat plate of few centimetres across, like the one on the bottom of the glass in the experiment 2, FIG. 2C. However, when lycopene was present in the medium a formation of a new type of crystals was observed.
Under the light and confocal microscopy these difference between two types of cholesterol crystals, in size and shape, are more evident (FIGS. 5A-F and 6A-B).

**Q.** Which “ratio of carotenoid to cholesterol at which complete disaggregation of the crystals was observed” value [1] does the source give for `CC1=C[C@H](O)CC(C)(C)[C@H]1/C=C/C(C)=C/C=C/C(C)=C/C=C/C=C(C)/C=C/C=C(C)/C=C/C1=C(C)C[C@@H](O)CC1(C)C` [lutein] here?
**A.** 1 to 20,000

**Q.** Which results are given for `CC(C)=CCC/C(C)=C/C=C/C(C)=C/C=C/C(C)=C/C=C/C=C(C)/C=C/C=C(C)/C=C/C=C(\C)CCC=C(C)C` [lycopene]?
**A.** size of the remaining crystalloid structures [2]: reduced by at least two-fold; size of the surrounding cholesterol-rich atheromatous mass of the lesion [2]: reduced by about two-fold; number of crystalloid structures in the lesion at end of incubation ([2]; three structures at start): only two; effect on size or shape of calcium phosphate crystals [3]: did not affect size or shape of calcium phosphate crystals; effect on rate / formation of cholesterol crystallisation [4]: significantly affect the rate of its crystallisation; effect on rate / formation of cholesterol crystallisation ([4]; listed as Lycopene): prevents or slows down formation of cholesterol crystallisation; day by which crystallisation was completed ([4]; lycopene to cholesterol 1:10^6, ethanol evaporation in the dark, 20-22° C., control: 12th day): ≤ 14 days; day on which floating cholesterol crystals started to appear ([4]; lycopene to cholesterol 1:10^6, ethanol evaporation in the dark, 20-22° C., control: after two days): 6 days; ratio of carotenoid to cholesterol at which complete disaggregation of the crystals was observed [1]: 1 to 100,000; incorporation into newly formed cholesterol crystal structures [5]: able to incorporate into newly formed crystal structures; type (size and shape) of cholesterol crystals formed ([5]; cholesterol to lycopene 1,000 to at least 10,000,000 : 1, controls plate-like crystals): significantly smaller and in a shape of needle- or narrow tube-like crystals; also recorded: needle-like crystals

**Q.** Which “effect on size or number of the cholesterol crystals” value [1] does the source give for “phosphatidylcholine [reference compound]” here?
**A.** not able to affect cholesterol crystals

**Q.** Which “effect on size or number of the cholesterol crystals” value [1] does the source give for tocopherol [reference compound] here?
**A.** ineffective
